In patent US20240317707A1, “COVALENT AND NON-COVALENT INHIBITORS OF CORONAVIRUS PAPAIN-LIKE PROTEASE” (UT-Battelle, LLC, priority 2023, published 2024):

What was measured:
in vitro = details: African green monkey
[1] = tested on: SARS-CoV-2 isolate USA-WA1/2020; test: microbe, parasite or virus in culture; type: cell-based; details: Severe acute respiratory syndrome coronavirus 2, Vero C1008, Vero E6 TMPRSS ACE2 cells, treated 1 hr with compound, MOI=0.1, 48 h; for EC50: read-out: CPE EC50; for EC90: read-out: CPE EC90

SMILES | CC50 at 48 h (in vitro) [nM] | EC50 [1] [nM] | EC90 [1] [nM]
COC(=O)/C=C/C(=O)NNC(=O)CCc1ccccc1C(=O)N[C@H](C)c1cccc(-c2cnc(CN3CC[C@H](O)C3)s2)c1 [NEU-7770] | > 10000 | 140 | 880
COC(=O)/C=C/C(=O)NNC(=O)CCc1ccccc1C(=O)NC1(c2cccc3ccccc23)COC1 [NEU-7769] | > 10000 | 1500 | 3200
COC(=O)/C=C/C(=O)NNC(=O)CCc1ccccc1C(=O)N[C@@H](c1cccc2ccccc12)C(F)(F)F [NEU-7772] | > 10000 | > 10000 | –
COC(=O)/C=C/C(=O)NNC(=O)CCc1ccccc1C(=O)NC1(c2cccc3ccccc23)CC1 [NEU-7768] | > 10000 | 22 | 250
C[C@@H](NC(=O)c1ccccc1CCC(=O)NNC(=O)/C=C/C(=O)O)c1cccc2ccccc12 [NEU-8114] | > 10000 | 15 | 160
COC(=O)/C=C/C(=O)NNC(=O)C(F)(F)c1ccccc1C(=O)N[C@H](C)c1cccc2ccccc12 [NEU-7792] | > 10000 | 240 | 820
